What all share (assay type): biochemical
What all share (settings): class symbols

The target in one assay is CDK2/cyclin A2 (Homo sapiens (Human), UniProt P24941). In words: Kinase activity assay, Caliper Mobility Shift Assay, CDK2/cyclin A2. The method, then:
(§1) The inhibitory effect of the compound on the kinase CDK4/cyclin D3 was tested by the Caliper Mobility Shift Assay method. The final test concentration of the compound was 10 concentrations, which started from […] and were obtained by three-fold dilution. 5 μL of 5-fold final concentration compound and 10 μL of CDK4/Cyclin D3 kinase solution with final concentration of 10 nM were added to the 384-well reaction plate respectively, and pre incubated at room temperature for 10 minutes (the negative control well contained 10 μL kinase buffer and 5 μL 5% DMSO; the positive control well contained 10 μL kinase solution and 5 μL 5% DMSO). The mixture of 10 μL ATP with a final concentration of 250 μM and the corresponding substrate peptide was added to initiate the reaction, and the mixture was reacted at room temperature for 150 minutes. 30 μL of stop test solution containing EDTA was added to stop the kinase reaction. Conversion rate was read by Caliper EZ Reader. Conversion inhibition rate %=(average conversion rate of positive control %−sample conversion rate %)/(average conversion rate of positive control %−average conversion rate of negative control %). Wherein: the negative control well represents conversion rate reading of wells without enzyme activity; the positive control well represents conversion rate reading of wells without compound inhibition. The log value of concentration was taken as the X-axis and the percentage inhibition rate was the Y-axis. The dose-effect curve was fitted by log(inhibitor) vs. response—Variable slope of the analysis software GraphPad Prism 5, and the IC50 value of each compound on the enzyme activity was obtained. Calculation formula: Y=Bottom+(Top−Bottom)/(1+10^((Log IC50−X)*HillSlope)).
The IC50 values of the compounds of the present disclosure for CDK6/cyclin D3 and CDK2/cyclin A2 were tested in a similar manner.

In another assay the target is CDK6/cyclin D3 (Homo sapiens (Human), UniProt Q00534). In words: Kinase activity assay, Caliper Mobility Shift Assay, CDK6/cyclin D3.
The next assay addresses CDK4/cyclin D3 (Homo sapiens (Human), UniProt P11802). In words: Kinase activity assay, Caliper Mobility Shift Assay, CDK4/cyclin D3. On the procedure: as §1, with “The dose-effect curve was fitted by log(inhibitor) vs. response—Variable slope of the analysis software GraphPad Prism 5, and the IC50 value of each compound on the enzyme activity was obtained.” left out

Where a name gives a salt, the structure may show the parent alone. Bounds are passed on as bounds.

Sequence of CDK6/cyclin D3 (Q00534 whole entry, species assumed): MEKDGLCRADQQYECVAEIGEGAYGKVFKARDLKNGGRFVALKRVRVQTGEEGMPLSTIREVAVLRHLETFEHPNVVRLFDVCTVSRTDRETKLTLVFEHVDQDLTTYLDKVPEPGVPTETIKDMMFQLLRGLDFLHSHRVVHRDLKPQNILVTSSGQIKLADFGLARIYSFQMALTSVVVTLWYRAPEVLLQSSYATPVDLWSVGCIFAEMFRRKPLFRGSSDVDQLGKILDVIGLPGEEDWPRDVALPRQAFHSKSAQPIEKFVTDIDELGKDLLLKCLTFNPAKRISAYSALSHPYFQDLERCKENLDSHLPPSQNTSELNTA
Sequence of CDK6/cyclin D3 (P30281 whole entry partner, species assumed): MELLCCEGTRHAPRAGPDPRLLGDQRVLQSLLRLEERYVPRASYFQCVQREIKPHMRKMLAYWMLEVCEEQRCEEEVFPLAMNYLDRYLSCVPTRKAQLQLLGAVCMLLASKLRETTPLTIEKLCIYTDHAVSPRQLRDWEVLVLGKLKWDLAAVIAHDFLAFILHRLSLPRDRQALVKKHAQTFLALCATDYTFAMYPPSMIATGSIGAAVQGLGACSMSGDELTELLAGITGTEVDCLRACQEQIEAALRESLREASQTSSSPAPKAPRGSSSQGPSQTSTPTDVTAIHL
Sequence of CDK4/cyclin D3 (P11802 whole entry, species assumed): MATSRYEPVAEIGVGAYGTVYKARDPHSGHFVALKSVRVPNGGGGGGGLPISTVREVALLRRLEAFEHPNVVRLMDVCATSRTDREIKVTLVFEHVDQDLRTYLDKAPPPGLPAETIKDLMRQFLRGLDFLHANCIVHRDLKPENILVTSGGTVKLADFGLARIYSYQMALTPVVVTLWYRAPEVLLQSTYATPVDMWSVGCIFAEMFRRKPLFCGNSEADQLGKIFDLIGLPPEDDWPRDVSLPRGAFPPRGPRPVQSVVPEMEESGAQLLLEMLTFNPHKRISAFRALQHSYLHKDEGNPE
Sequence of CDK4/cyclin D3 (P30281 whole entry partner, species assumed): as the sequence (P30281 whole entry partner, species assumed) above

What is called IC50 is the concentration at which inhibition is half-maximal. `CC(C)n1nnc2ccc3cnc(Nc4ccc(N5CCNCC5)cc4)nc3c21` [Compound I-24, 1-isopropyl-N-(4-(piperazin-1-yl)phenyl)-1H-[1,2,3]triazolo[4,5-h]quinazolin-8-amine hydrochloride]: the IC50 on CDK2/cyclin A2, on CDK6/cyclin D3 and at CDK4/cyclin D3 was below 10 nM in each case.

Regarding `CC(C)n1nnc2ccc3cnc(Nc4ccc(N(CCN5CCOCC5)S(C)(=O)=O)cc4)nc3c21` [Compound I-37, N-(4-((1-Isopropyl-1H-[1,2,3]triazolo[4,5-h]quinazolin-8-yl)amino)phenyl)-N-(2-morpholinoethyl)methanesulfonamide], the IC50 at CDK2/cyclin A2, on CDK6/cyclin D3 and on CDK4/cyclin D3 was below 10 nM throughout.

With `CC(C)n1nnc2ccc3cnc(Nc4ccc(N5CCOCC5)cc4F)nc3c21` [Compound I-29, N-(2-Fluoro-4-morpholinophenyl)-1-iso-propyl-1H-[1,2,3]triazolo[4,5-h]quinazo-lin-8-amine], the IC50 on CDK2/cyclin A2, on CDK6/cyclin D3 and on CDK4/cyclin D3 was 50 to 100 nM in each case.

Consider `CC(C)n1nnc2ccc3cnc(Nc4ccc(C(=O)N5CCNCC5)cc4)nc3c21` [Compound I-39, (4-((1-Isopropyl-1H-[1,2,3]triazolo[4,5-h]quinazolin-8-yl)amino)phenyl)(piper-azin-1-yl)methanone hydrochloride], for which the 50% inhibitory concentration (IC50) on CDK2/cyclin A2, at CDK6/cyclin D3 and at CDK4/cyclin D3 was below 10 nM throughout.

As for `CCN1CCN(c2ccc(Nc3ncc4ccc5nnn(C(C)C)c5c4n3)cc2)CC1` [Compound I-25, N-(4-(4-Ethylpiperazin-1-yl)phenyl)-1-iso-propyl-1H-[1,2,3]triazolo[4,5-h]quin-azolin-8-amine], the half-maximal inhibitory concentration (IC50) at CDK2/cyclin A2, at CDK6/cyclin D3 and at CDK4/cyclin D3 was below 10 nM throughout.

As to `CCN1CCN(c2ccc(Nc3ncc4ccc5nnn(C(C)C)c5c4n3)cc2F)CC1` [Compound I-34, N-(4-(4-Ethylpiperazin-1-yl)-3-fluorophe-nyl)-1-isopropyl-1H-[1,2,3]triazolo[4,5-h]quinazolin-8-amine hydrochloride], the IC50 on CDK2/cyclin A2, at CDK6/cyclin D3 and on CDK4/cyclin D3 was below 10 nM in each case.

Regarding `COc1cc(N2CCNCC2)ccc1Nc1ncc2ccc3nnn(C(C)C)c3c2n1` [Compound I-30, 1-Isopropyl-N-(2-methoxy-4-(piperazin-1-yl)phenyl)-1H-[1,2,3]triazolo[4,5-h]quin-azolin-8-amine hydrochloride], the IC50 on CDK2/cyclin A2, on CDK6/cyclin D3 and on CDK4/cyclin D3 was below 10 nM each time.

Turning to `COc1cc(N2CCN(C)CC2)ccc1Nc1ncc2ccc3nnn(C(C)C)c3c2n1` [Compound I-31, 1-Isopropyl-N-(2-methoxy-4-(4-methyl-piperazin-1-yl)phenyl)-1H-[1,2,3]triazo-lo[4,5-h]quinazolin-8-amine], the IC50 at CDK2/cyclin A2, on CDK6/cyclin D3 and at CDK4/cyclin D3 was 50 to 100 nM in each case.

As to `CC(C)n1nnc2ccc3cnc(Nc4ccc(N5CCNCC5)c(F)c4)nc3c21` [Compound I-32, N-(3-Fluoro-4-(piperazin-1-yl)phenyl)-1-isopropyl-1H-[1,2,3]triazolo[4,5-h]quin-azolin-8-amine hydrochloride], the IC50 on CDK2/cyclin A2, at CDK6/cyclin D3 and on CDK4/cyclin D3 was below 10 nM in each case.

Consider `CC(C)n1nnc2ccc3cnc(Nc4ccc(N5CCN(C)CC5)c(F)c4)nc3c21` [Compound I-33, N-(3-Fluoro-4-(4-methylpiperazin-1-yl)phenyl)-1-isopropyl-1H-[1,2,3]triazolo[4,5-h]quinazolin-8-amine], for which the IC50 on CDK2/cyclin A2, at CDK6/cyclin D3 and at CDK4/cyclin D3 was below 10 nM each time.

In the case of `CC(C)N1CCN(c2ccc(Nc3ncc4ccc5nnn(C(C)C)c5c4n3)nc2)CC1` [Compound I-7, 1-Isopropyl-N-(5-(4-isopropylpiperazin-1-yl)pyridin-2-yl)-1H-[1,2,3]triazolo [4,5-h]quinazolin-8-amine hydrochloride], the half-inhibitory concentration (IC50) on CDK6/cyclin D3 and on CDK4/cyclin D3 was below 10 nM each time.

In the case of `CC(C)n1nnc2ccc3cnc(Nc4ccc(N5CCC(N(C)C)CC5)cn4)nc3c21` [Compound I-11, N-(5-(4-(Dimethylamino)piperidin-1-yl)pyridin-2-yl)-1-isopropyl-1H-[1,2,3] triazolo[4,5-h]quinazolin-8-amine hydrochloride], the IC50 at CDK6/cyclin D3 and at CDK4/cyclin D3 was below 10 nM each time.

As for `CC(C)n1nnc2ccc3cnc(Nc4ccc(OCCN(C)C)cc4)nc3c21` [Compound I-38, N-(4-(2-(Dimethylamino)ethoxy)phenyl)-1-isopropyl-1H-[1,2,3]triazolo[4,5-h]quin-azolin-8-amine], the 50% inhibitory concentration (IC50) on CDK2/cyclin A2, at CDK6/cyclin D3 and at CDK4/cyclin D3 was below 10 nM each time.

With `Cc1cc(Nc2ncc3ccc4nnn(C(C)C)c4c3n2)ncc1N1CCNCC1` [Compound I-2, 1-Isopropyl-N-(4-methyl-5-(piperazin-1-yl)pyridin-2-yl)-1H-[1,2,3]triazolo[4,5-h]quinazolin-8-amine hydrochloride], the figures for the half-inhibitory concentration (IC50) on CDK6/cyclin D3 and on CDK4/cyclin D3 were 50 to 100 nM and 10 to 50 nM, respectively.

Take `CC(C)n1nnc2ccc3cnc(Nc4ccc(N5CCS(=O)(=O)CC5)cn4)nc3c21` [Compound I-15, 4-(6-((1-Isopropyl-1H-[1,2,3]triazolo[4,5-h]quinazolin-8-yl)amino)pyridin-3-yl)thiomorpholine 1,1-dioxide hydrochloride]: the half-inhibitory concentration (IC50) on CDK6/cyclin D3 was 10 to 50 nM; on CDK4/cyclin D3, below 10 nM.

For `CC(C)n1nnc2ccc3cnc(Nc4ccc(C5CCNCC5)cn4)nc3c21` [Compound I-12, 1-Isopropyl-N-(5-(piperidin-4-yl)pyri-din-2-yl)-1H-[1,2,3]triazolo[4,5-h]quin-azolin-8-amine hydrochloride], the IC50 at CDK6/cyclin D3 and on CDK4/cyclin D3 was below 10 nM in each case.

For the compound `CC(C)n1nnc2ccc3cnc(Nc4ccc(N5CCN(C)CC5)cn4)nc3c21` [Compound I-4, 1-Isopropyl-N-(5-(4-methylpiperazin-1-yl)pyridin-2-yl)-1H-[1,2,3]triazolo[4,5-h]quinazolin-8-amine hydrochloride], the IC50 at CDK6/cyclin D3 and on CDK4/cyclin D3 was below 10 nM each time.

Regarding `CCN1CCN(c2ccc(Nc3ncc4ccc5nnn(C(C)C)c5c4n3)nc2)CC1` [Compound I-5, N-(5-(4-Ethylpiperazin-1-yl)pyridin-2-yl)-1-isopropyl-1H-[1,2,3]triazolo[4,5-h]quinazolin-8-amine hydrochloride], the IC50 at CDK6/cyclin D3 and at CDK4/cyclin D3 was below 10 nM throughout.

As to `CC(C)Cn1nnc2ccc3cnc(Nc4ccc(N5CCN(C)CC5)cn4)nc3c21` [Compound I-19, 1-Isobutyl-N-(5-(4-methylpiperazin-1-yl)pyridin-2-yl)-1H-[1,2,3]triazolo[4,5-h]quinazolin-8-amine hydrochloride], the figures for the IC50 at CDK6/cyclin D3 and at CDK4/cyclin D3 were 10 to 50 nM and below 10 nM, respectively.

Consider `CC(C)n1nnc2ccc3cnc(Nc4ccc(N5CCNCC5)cn4)nc3c21` [Compound I-1, 1-Isopropyl-N-(5-(piperazin-1-yl)pyridin-2-yl)-1H-[1,2,3]triazolo[4,5-h]quinazolin-8-amine hydrochloride], for which the half-inhibitory concentration (IC50) on CDK6/cyclin D3 and at CDK4/cyclin D3 was below 10 nM in each case.

As for `CC(C)Cn1nnc2ccc3cnc(Nc4ccc(N5CCOCC5)cn4)nc3c21` [Compound I-21, 1-Isobutyl-N-(5-morpholinopyridin-2-yl)-1H-[1,2,3]triazolo[4,5-h]quinazolin-8-amine], the half-maximal inhibitory concentration (IC50) on CDK6/cyclin D3 fell in the range of 50 to 100 nM; at CDK4/cyclin D3, 10 to 50 nM.

Consider `CC(C)n1nnc2ccc3cnc(Nc4ccc(N5CC6(CCNCC6)C5)cn4)nc3c21` [Compound I-17, N-(5-(2,7-Diazaspiro[3.5]nonan-2-yl)pyridin-2-yl)-1-isopropyl-1H-[1,2,3]tri-azolo[4,5-h]quinazolin-8-amine hydrochloride], for which the figures for the IC50 on CDK6/cyclin D3 and on CDK4/cyclin D3 were 10 to 50 nM and below 10 nM, respectively.

The values are drawn from US12312355B2, “1H-[1, 2, 3]triazolo[4, 5-h] quinazoline compounds acting as protein kinase inhibitors” (CHENGDU CYNOGEN BIO-PHARMACEUTICAL TECHNOLOGY CO., LTD., priority 2019, dated 2025).
